Where two headings read alike, the source gives them in different places.
Experiments:
Aspergillus sp. = assay: Marine-derived fungi growth inhibition (OD405); format: cell-based; conditions: Aspergillus, 120 h, read-out: IC50 Aspergillus sp.
Experimental: (§1) All the biological assays were run by triplicate. […] For the active products, serial dilutions were performed to calculate the half-maximal inhibitory concentrations (IC50) or the minimal inhibitory concentrations (MIC). Unless otherwise stated, the test concentrations were 100, 50, 25, 10, 5, 2.5, 1, 0.5 and 0.1 μM. Dose-response curves were adjusted with GraphPad Prism 5 software using a four-parameter non-linear regression model.
(§2) Three strains of marine-derived fungi were kindly provided by Dr. Á. Trigos (University of Veracruz, Mexico). The strains were isolated from reef organisms collected from the Veracruz Reef System and identified as Aspergillus sp., Fusarium sp. and Alternaria sp..
(§3) Fungal strains were cultured in Potato-Dextrose Agar (PDA) supplemented with filtered seawater (FSW) (50% v/v) at 26 °C for 5 days prior to experiments. […] Briefly, fungal inocula were prepared by addition of 5 ml of sterile saline solution to the cultures. Gently swabbing released conidia. […] The plates were incubated for 5 days at 26 °C. The calculation of the half-maximal inhibitory concentrations (IC50) was performed using OD405 as endpoint.

Alternaria sp. = assay: Marine-derived fungi growth inhibition (OD405); format: cell-based; conditions: Alternaria, 120 h, read-out: IC50 Alternaria sp.
Experimental: as §1, §2, §3

[1] = test system: Phaeodactylum tricornutum; assay: Benthic diatom growth inhibition (chlorophyll-a); format: cell-based; conditions: Phaeodactylum tricornutum, 120 h, read-out: IC50 P. tricornutum
Experimental: as §1
(§4) Five strains of benthic diatoms, Nitszchia sp. […] The Nitzschia and Navicula strains were purchased from the Spanish Bank of Algae (Marine Biotechnology Center, University of Las Palmas de Gran Canaria). The other three strains were kindly provided by Dr. G. Courtois (University of Las Palmas de Gran Canaria). Diatoms were cultured at 19±1 °C in Erlenmeyer flaks (250 ml) containing 150 ml of Guillard’s F/2 medium, and subjected to a photoperiod of 18:6. Tests were run in 48-well plates. Inocula were prepared by adjusting diatom concentration to 2–4 × 10^6 cells ml^-1 using a Neubauer chamber. Test products were dissolved in F/2 medium (500 μl) to which diatom inocula (500 μl) were added. Thus, the final assay volume was 1 ml and the starting cell densities were ca. 1–2 x 10^6 diatoms ml^-1. Plates were incubated under the abovementioned conditions for 5 days and then chlorophyll-a (Chla) was quantified.
(§5) In order to extract Chla, the content of each well was transferred to a microcentrifuge tube and centrifuged at 10,000 rpm for 10 min. The supernatants were discarded and 200 μl of DMSO were added to the pellets. The tubes were incubated at 65 °C for 2 h in total darkness and vortexed every 30 min. Then, the content of each tube was transferred to a 96-well plate and the amount of Chla was determined spectrophotometrically. Path length correction factor for the DMSO extracts was determined.

Nitzschia sp. = assay: Benthic diatom growth inhibition (chlorophyll-a); format: cell-based; conditions: 120 h, read-out: IC50 Nitzschia sp.
Experimental: as §1, §4, §5

Amphora sp. = assay: Benthic diatom growth inhibition (chlorophyll-a); format: cell-based; conditions: 120 h, read-out: IC50 Amphora sp.
Experimental: as §1, §4, §5

[2] = test system: Navicula cf. salinicola BEA 0055; assay: Benthic diatom growth inhibition (chlorophyll-a); format: cell-based; conditions: 120 h, read-out: IC50 Navicula cf. salinicola
Experimental: as §1, §4, §5

Cylindrotheca sp. = assay: Benthic diatom growth inhibition (chlorophyll-a); format: cell-based; conditions: 120 h, read-out: IC50 Cylindrotheca sp.
Experimental: as §1, §4, §5

Fusarium sp. = assay: Marine-derived fungi growth inhibition (OD405); format: cell-based; conditions: Fusarium, 120 h, 5 days, 26 °C
Experimental: All the biological assays were run by triplicate.
as §2, §3

C. violaceum CVO26 = C. violaceum CVO26 growth inhibition (OD625); format: cell-based; conditions: Chromobacterium violaceum, CVO26, 18 h, read-out: IC50 (Growth inhibition)
Experimental: The reporter strain C. violaceum CVO26 (CECT 5999) was used to screen the ability of the products to interfere with violacein production, a QS-regulated phenotype. C. violaceum CVO26 is a mini-Tn5 mutant that depends on an exogenous source of autoinducer (AI) (N-hexanoyl homoserine lactone, HHL) for violacein production. C. violaceum CVO26 was cultured in LB broth (Sigma-Aldrich) supplemented with 25 μg ml^-1 kanamycin. Inocula were prepared by dilution (1:100) of an overnight culture of the reporter strain [49]. One hundred microliters of inoculum with HHL (Sigma-Aldrich, 6 μM) or without the AI were added to 96-well plates containing 100 μl of the appropriate dilutions of the test products in LB. Thus, two sets of plates were prepared. One set of plates (without HHL) was used to evaluate the effect of the products on bacterial growth, whereas the other set of plates (with HHL) was used to evaluate their effect on violacein production. Both sets of plates were incubated at 30 °C with agitation (150 rpm) for 18 h.
Growth inhibition was quantified in the first batch of plates by re-suspending bacterial pellets and measuring the OD625. From the second batch of plates violacein was extracted and quantified. Briefly, the plates were dried overnight (60 °C) and violacein was re-solubilized by the addition of 200 μl of DMSO. The plates were shaken for 3 h and then the OD590 was determined.
Indeed, the inhibitions observed in violacein production for long alkyl chains (10–18, 20) were clearly correlated to the biocidal effect exerted by these compounds, with ‘therapeutic ratios’ (IC50 for growth inhibition/IC50 for violacein inhibition) around 1, in general (Table 2). Note that, as the length of the hydrocarbon chain becomes shorter, this ratio increased (8–9). […] To evaluate these compounds in further detail, […] stock solutions were prepared […] to avoid the use of high concentrations of DMSO in the bioassays. […] Serial two-fold dilutions (500–3.9 μM) were assayed. Consequently, the highest amount of DMSO used in the assay was 0.25% (v/v). […] Growth inhibitory effects are only observed at 500 μM, particularly for compound 7 (Fig 6D).

Artemia salina nauplii = assay: in vivo; conditions: instar I nauplii, 24 h, 28 °C
Experimental: as §1
Artemia salina cysts (INVE Aquaculture, Ghent, Belgium) were hatched in brackish water (30 ‰ salinity) at 28 °C with aeration and under constant light. Newly hatched instar I nauplii were harvested for bioassays. Tests were conducted in 96-well plates (15±5 nauplii per well, test volume = 200 μl). The number of dead and alive individuals was recorded after 24 h of incubation at 28 °C and 24-hour photoperiod.

[3] = growth inhibition, 5 days, 26 °C

Row | Compound | IC50 (Aspergillus sp.; [3]) | IC50 (Alternaria sp.; [3]) | IC50 ([1]; growth, 5 days, chlorophyll-a) | IC50 (Nitzschia sp.; growth, 5 days, chlorophyll-a) | IC50 (Amphora sp.; growth, 5 days, chlorophyll-a) | IC50 ([2]; growth, 5 days, chlorophyll-a) | IC50 (Cylindrotheca sp.; growth, 5 days, chlorophyll-a) | IC50 (Fusarium sp.) | IC50 (C. violaceum CVO26) | IC50 A. salina (LC50) (Artemia salina nauplii) | IC50 (Aspergillus sp.) | IC50 (Alternaria sp.) | IC50 [1] | IC50 (Nitzschia sp.) | IC50 (Amphora sp.) | IC50 [2] | IC50 (Cylindrotheca sp.)
1 | BrC(Br)[P+](c1ccccc1)(c1ccccc1)c1ccccc1 [Compound 1] | > 100 µM | > 100 µM | 16.8 µM | 18.7 µM | 19.5 µM | 10.6 µM | 9.8 µM | > 100 µM | > 100 µM | >100 µM |  |  |  |  |  |  | 
2 | COC(=O)CCC[P+](c1ccccc1)(c1ccccc1)c1ccccc1 [Compound 2] | > 100 µM | > 100 µM | > 100 µM | 40.2 µM | 43.4 µM | 50.2 µM | 23.7 µM | > 100 µM | > 100 µM | >100 µM |  |  |  |  |  |  | 
3 | C/C=C/C[P+](c1ccccc1)(c1ccccc1)c1ccccc1 [Compound 3] | > 100 µM | > 100 µM | > 100 µM | > 100 µM | > 100 µM | 62.2 µM | > 100 µM | > 100 µM | > 500 µM | >100 µM |  |  |  |  |  |  | 
4 | BrCCCC[P+](c1ccccc1)(c1ccccc1)c1ccccc1 [Compound 4] | > 100 µM | > 100 µM | > 100 µM | > 100 µM | > 100 µM | > 100 µM | > 100 µM | > 100 µM | > 500 µM | 92.7 µM |  |  |  |  |  |  | 
5 | CCCCN[P+](c1ccccc1)(c1ccccc1)c1ccccc1 [Compound 5] | > 100 µM | > 100 µM | 81.5 µM | 11.9 µM | 42.5 µM | 8.2 µM | 12.6 µM | > 100 µM | > 500 µM | 17.2 µM |  |  |  |  |  |  | 
6 | O=S(=O)([O-])CCCC[P+](c1ccccc1)(c1ccccc1)c1ccccc1 [Compound 6] | > 100 µM | > 100 µM | > 100 µM | > 100 µM | > 100 µM | > 100 µM | 21.3 µM | > 100 µM | > 100 µM | >100 µM |  |  |  |  |  |  | 
7 | CCCCC[P+](c1ccccc1)(c1ccccc1)c1ccccc1 [Compound 7] | > 100 µM | > 100 µM | > 100 µM | > 100 µM | > 100 µM | > 100 µM | > 100 µM | > 100 µM | > 500 µM | >100 µM |  |  |  |  |  |  | 
8 | CCCCCCC[P+](c1ccccc1)(c1ccccc1)c1ccccc1 [Compound 8, heptyl triphenylphosphonium bromide] | 12.4 µM | 12 µM | 92.2 µM | 20.8 µM | 37.6 µM | 6.4 µM | 10.6 µM | > 100 µM | 52.5 µM | 20.4 µM |  |  |  |  |  |  | 
9 | CCCCCCCCC[P+](c1ccccc1)(c1ccccc1)c1ccccc1 [Compound 9] | 10 µM | 7.4 µM | 11.2 µM | 3.6 µM | 6.2 µM | 2.7 µM | 1.9 µM | 31.4 µM | 16 µM | 2.0 µM |  |  |  |  |  |  | 
10 | CCCCCCCCCC[P+](c1ccccc1)(c1ccccc1)c1ccccc1 [Compound 10] | 11.7 µM | 5.2 µM | 1.9 µM | 2.5 µM | 3.2 µM | 2.3 µM | 1 µM | 21 µM | 11.9 µM | 1.4 µM |  |  |  |  |  |  | 
11 | CCCCCCCCCCC[P+](c1ccccc1)(c1ccccc1)c1ccccc1 [Compound 11] | 5.1 µM | 3.5 µM | 1.7 µM | 2.3 µM | 3.3 µM | 1.5 µM | 1 µM | 5.3 µM | 4.9 µM | 1.8 µM |  |  |  |  |  |  | 
12 | CCCCCCCCCCCC[P+](c1ccccc1)(c1ccccc1)c1ccccc1 [Compound 12] |  |  |  |  |  |  |  | 6.6 µM | 10.3 µM | 2.4 µM | 7.5 µM | 1.2 µM | 1.2 µM | 2.2 µM | 4.8 µM | 1.3 µM | 1 µM
13 | CCCCCCCCCCCCC[P+](c1ccccc1)(c1ccccc1)c1ccccc1 [Compound 13] | 4.8 µM | 1.6 µM | 1 µM | 2.2 µM | 4.5 µM | 1.8 µM | 1.7 µM | 6.5 µM | 3.2 µM | 0.9 µM |  |  |  |  |  |  | 
14 | CCCCCCCCCCCCCC[P+](c1ccccc1)(c1ccccc1)c1ccccc1 [Compound 14] | 5.3 µM | 0.7 µM | 1.5 µM | 3.5 µM | 2.1 µM | 1.2 µM | 4.5 µM | 5.1 µM | 2.3 µM | 1.8 µM |  |  |  |  |  |  | 
15 | CCCCCCCCCCCCCCC[P+](c1ccccc1)(c1ccccc1)c1ccccc1 [Compound 15] | 5.2 µM | 2.9 µM | 1.1 µM | 3.6 µM | 3.1 µM | 2.8 µM | 2.2 µM | 4.2 µM | 2.6 µM | 2.8 µM |  |  |  |  |  |  | 
16 | O=C(O)CCCCCCCCCC[P+](c1ccccc1)(c1ccccc1)c1ccccc1 [Compound 19] | > 100 µM | > 100 µM | > 100 µM | > 100 µM | 75.5 µM | > 100 µM | 24.1 µM | > 100 µM | > 100 µM |  |  |  |  |  |  |  | 

Reference: paper PMC4405350, “From Broad-Spectrum Biocides to Quorum Sensing Disruptors and Mussel Repellents: Antifouling Profile of Alkyl Triphenylphosphonium Salts” (PLoS ONE, 2015)
